Where a name gives a salt, the structure may show the parent alone.

Series [1] concerns the target TRPV1 (Mus musculus, UniProt Q704Y3). Description: Calcium imaging: TRPV1 sensitization, double capsaicin stimulation of DRG neurons. To be noted: inhibitor 10 μM, preincubation 1 h; 9,10-EpOME 1 μM.
Description: (a) DRG neurons were double-stimulated with capsaicin (200 nM, 15 s each) and incubated with either vehicle or 9,10-EpOME [1 μM] for two minutes prior to the second capsaicin stimulation. (b) Dose-dependent difference in ratio between the first and the second capsaicin response using the same protocol as described in (a). Data represent the mean ±SEM of the following number of neurons: 27 (control), 26 (250 nM 9,10-EpOME), 21 (500 nM 9,10-EpOME), 19 (750 nM 9,10-EpOME), 41 (1 μM 9,10-EpOME), 18 (2 μM 9,10-EpOME) or 28 (using 50 μM AITC for 20 s instead of capsaicin); *p<0.05, **p<0.01, ***p<0.001 student's t-test.
Data represent mean ±SEM of 15 (vehicle), 19 (EpOME) or 33 neurons (EpOME with H89 preincubation). […] Data represent mean ±SEM of 18 (vehicle), 23 (EpOME) or 39 neurons (EpOME with GFX preincubation); *p<0.05, **p<0.01 student's t-test; n.s. not significant.
Murine DRGs were dissected from spinal segments and directly transferred to ice cold HBSS with CaCl2 and MgCl2 (Invitrogen, Carsbad, CA, USA). Next, isolated DRGs were incubated with collagenase/dispase (500 U/ml Collagenase; 2.5 U/ml Dispase) in neurobasal medium containing L-glutamine [2 mM] penicillin (100 U/ml), streptomycin (100 μg/ml), B-27 and gentamicin (50 μg/ml) (all from Invitrogen, Carlsbad, CA, USA) at 37° C. for 75 min. […]
The test system of series [2] is wild type BL/6N mice. Nature of the series: Thermal and mechanical thresholds after intraplantar or intrathecal 9,10-EpOME. The format is in vivo, mouse. Here is the method: FIG. 5: Intraplantar or intrathecal injection of 9,10-EpOME reduces pain thresholds and sensitizes capsaicin induced mechanical thresholds in wild type mice. (a) and (b) C57B1/6N mice received an intraplantar injection of 9,10-EpOME (10 μM) or vehicle (DMSO 0.3% (v/v) in saline). Thermal (a) or mechanical (b) thresholds were monitored for 5 h post injection. Data represents mean ±SEM from eight mice. (c) and (d) Wild type BL/6N mice were injected intrathecally with 9,10-EpOME (10 μM) or vehicle (DMSO 0.3% (v/v) in saline). Thermal (c) or mechanical (d) thresholds were monitored for 2 h (thermal) or 3 h (mechanical) post injection with 15 minute intervals for the first hour and 30 minute intervals for the second hour. Data represents mean ±SEM from eight mice. Die Abbildungen sind nicht mitgeliefert
For the determination of mechanical allodynia or thermal hypersensitivity, mice were kept in test cages on an elevated grid for at least 2 h to allow accommodation. Baseline measurements were performed using a Dynamic Plantar Aesthesiometer or a Hargreaves Apparatus (Ugo Basile, Comerio, VA, Italy) detecting withdrawal latency of the hind paws after mechanical stimulation. For the assessment of the mechanical thresholds, the steel rod was pushed against the mid-plantar hind paw with linear ascending force (0-5 g over 10 seconds, increasing 0.5 g/s) until a fast withdrawal response occurred. Slow movements of the paw were not counted. Paw withdrawal latencies (PWL) were determined in seconds (s) ±0.1 with a cut-off time of 20 s. The non-injected and injected paws were measured alternately in intervals of 5-10 min. For determination of thermal thresholds, mice were kept in test cages on a warmed glass plate (32° C.) for at least 2 h on the first day to allow accommodation. Then, the mid-plantar region of the paws was stimulated with a radiant heat device, consisting of a high intensity projector lamp, until withdrawal occurred. The non-injected and injected paws were measured alternately in intervals of 5-10 min. For all behavioral tests the investigator was blinded for treatment or genotype of the mice.
Treatments: For peripheral injections, 20 μl of 9,10-EpOME [5 μM] (Cayman, Ann Arbor, MI, USA) were injected subcutaneously (s.c.) in the mid-plantar area of the hind paw. […]
The inventors then tested the Galphas-coupled prostanoid receptors for their potential involvement in 9,10-EpOME dependent TRPV1 sensitization in calcium imaging experiments. […] To characterize in vivo effects of 9,10-EpOME, the inventors injected the lipid in hind paws of wild type BL/6N mice and measured the thermal (FIG. 5A) and mechanical thresholds (FIG. 5B) up to 5 h post injection. […] The inventors then injected 9,10-EpOME intrathecally and measured thermal and mechanical thresholds in short time intervals. […]

Series [3] has as its system DRG neurons. Description: Calcium imaging: 9,10-EpOME-evoked calcium transients in DRG neurons. As to conditions: 9,10-EpOME 10 μM, 30 s; antagonist pre-incubated two minutes; AMG 9810 1 μM, HC-030031 20 μM. The series is classed as cell-based, mouse. Here is the method:
FIG. 2: Direct effects of 9,10-EpOME on DRG-neurons. (a) Application of 9,10-EpOME [10 μM, 30 s] causes calcium transients on DRG neurons which respond to high potassium (50 mM KCl, 30 s). A representative trace is shown. (b) Dose response relationship of 9,10-EpOME dependent calcium increases in DRG neurons related to the number of responding neurons Data represents the mean ±SEM of five measurements per concentration. (c) and (d) Calcium transients caused by 9,10-EpOME [10 μM, 30 s] can be disrupted using calcium-free medium containing EGTA (2 mM) washed in 2 minutes before and after 9,10-EpOME stimulation. Data represents the mean ±SEM of 24 (calcium-free) or 16 (control) neurons. (e) and (f) Calcium transients of 9,10-EpOME [10 μM, 30 s] can be blocked by a selective TRPV1 antagonist (AMG 9810, 1 μM) but not by a selective TRPA1 antagonist (HC-030031, 20 μM) washed in for two minutes prior to the second 9,10-EpOME stimulation. Data represents the mean ±SEM of 16 (control), 31 (AMG 9810) or 18 (HC-030031) neurons; **p<0.01, student's t-test.
Next, the inventors characterized 9,10-EpOME concerning its effects on DRG-neurons in calcium imaging experiments. […]

In series [4] the test system is paclitaxel-induced CIPNP in mice.
Description: (a) Levels of 9,10-EpOME shown in % of control determined by LC-MS/MS in sciatic nerves, DRGs and the dorsal horn of the spinal cord eight days after treatment with paclitaxel (6 mg·kg-1 i.p. and 1 mg·kg-1 terfenadine (grey) or vehicle (2% DMSO v/v, black)) Data represents mean ±SEM from the DRGs of five mice per group; *p<0.05, **p<0.01, student's t-test. (b) Remaining concentrations of all measured epoxylipids and dihydro-metabolites (9,10-EpOME, 12,13-EpOME, 9,10-DiHOME, 12,13-DiHOME and 14,15-EET) in sciatic nerve, DRGs, dorsal horn of the spinal cord and plasma after administration of terfenadine (1 mg·kg-1). (c) Mechanical thresholds of mice treated with paclitaxel for eight days (6 mg·kg-1 i.p.) that received an intravenous injection of terfenadine (1 or 2 mg kg-1) or vehicle (DMSO 2.5 or 5% (v/v)). The mechanical thresholds were monitored up to 5 h after injection of terfenadine or vehicle. Data represent mean ±SEM from 8-9 mice per group; #, *p<0.05, two-way ANOVA with Bonferroni post hoc test (*1 mg kg-1, #2 mg kg-1 terfenadine). […] Data represent mean ±SEM from 6-9 mice per group.
Paclitaxel was solved in Cremophor EL/Ethanol 1:1 and diluted in saline. The dose for intraperitoneal injection was set to 6 mg/kg as described previously.
For the determination of mechanical allodynia or thermal hypersensitivity, mice were kept in test cages on an elevated grid for at least 2 h to allow accommodation. Baseline measurements were performed using a Dynamic Plantar Aesthesiometer or a Hargreaves Apparatus (Ugo Basile, Comerio, VA, Italy) detecting withdrawal latency of the hind paws after mechanical stimulation. […] Slow movements of the paw were not counted. Paw withdrawal latencies (PWL) were determined in seconds (s) ±0.1 with a cut-off time of 20 s. The non-injected and injected paws were measured alternately in intervals of 5-10 min. […] The non-injected and injected paws were measured alternately in intervals of 5-10 min. […]
The target of series [5] is T1, CYP2J6 (Mus musculus, UniProt O54750).
T1 construct: the inventors dissected the sciatic nerve, DRGs and the dorsal spinal cord and quantified epoxylipids in these tissues; from tissue; host or cells: sciatic nerve, DRGs, dorsal spinal cord and plasma of paclitaxel-treated C57BL/6N mice
T1 sequence (O54750 1-501): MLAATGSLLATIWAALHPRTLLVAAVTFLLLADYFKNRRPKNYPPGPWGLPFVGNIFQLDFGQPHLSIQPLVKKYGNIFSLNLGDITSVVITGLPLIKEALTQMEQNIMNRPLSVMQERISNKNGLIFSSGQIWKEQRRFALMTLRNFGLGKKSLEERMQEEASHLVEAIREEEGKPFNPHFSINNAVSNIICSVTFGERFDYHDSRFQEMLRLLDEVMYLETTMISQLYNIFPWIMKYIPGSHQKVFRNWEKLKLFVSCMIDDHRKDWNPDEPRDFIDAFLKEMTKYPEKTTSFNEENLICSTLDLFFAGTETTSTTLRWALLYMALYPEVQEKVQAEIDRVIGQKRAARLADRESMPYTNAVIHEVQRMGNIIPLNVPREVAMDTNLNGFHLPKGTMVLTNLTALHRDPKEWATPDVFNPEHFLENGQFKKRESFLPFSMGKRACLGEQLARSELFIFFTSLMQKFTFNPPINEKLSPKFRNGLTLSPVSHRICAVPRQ
Nature of the series: LC-MS/MS epoxylipid levels in tissues of paclitaxel treated mice after terfenadine. The series is classed as in vivo.
Description: (b) Remaining concentrations of all measured epoxylipids and dihydro-metabolites (9,10-EpOME, 12,13-EpOME, 9,10-DiHOME, 12,13-DiHOME and 14,15-EET) in sciatic nerve, DRGs, dorsal horn of the spinal cord and plasma after administration of terfenadine (1 mg·kg-1).
Sample extraction and standards: Sample extraction was performed as described previously. Briefly, stock solutions with 2500 ng/ml of all analytes were prepared in methanol. Working standards were obtained by further dilution with a concentration range of 0.1-250 ng/ml for EETs, EpOMEs and DiHOMEs and HODEs Sample extraction was performed with liquid-liquid-extraction. Therefore tissue or cell culture medium was extracted twice with 600 μl ethyl acetate. The combined organic phases were removed at a temperature of 45° C. under a gentle stream of nitrogen. The residues were reconstituted with 50 μl of methanol/water/(50:50, v/v), centrifuged for 2 min at 10,000×g and then transferred to glass vials (Macherey-Nagel, Düren, Germany) prior to injection into the LC-MS/MS system.
Instrumentation for measuring epoxylipids and HODEs: The LC-MS/MS system consisted of an API 4000 triple quadrupole mass spectrometer (Applied Biosystems, Darmstadt, Germany), equipped with a Turbo-V-source operating in negative ESI mode, an Agilent 1100 binary HPLC pump and degasser (Agilent, Waldbronn, Germany) and an HTC Pal autosampler (Chromtech, Idstein, Germany) fitted with a 25 μL LEAP syringe (Axel Semrau GmbH, Sprockhövel, Germany). High purity nitrogen for the mass spectrometer was produced by a NGM 22-LC-MS nitrogen generator (cmc Instruments, Eschborn, Germany). […] Quantification was performed with Analyst Software V 1.4.2 (Applied Biosystems, Darmstadt, Germany) employing the internal standard method (isotope-dilution mass spectrometry). Ratios of analyte peak area and internal standard area (y-axis) were plotted against concentration (x-axis) and calibration curves were calculated by least square regression with 1/concentration2 weighting.

For series [6], the target named is T2, CYP2J2 (Homo sapiens, UniProt P51589).
T2 sequence (P51589 1-502): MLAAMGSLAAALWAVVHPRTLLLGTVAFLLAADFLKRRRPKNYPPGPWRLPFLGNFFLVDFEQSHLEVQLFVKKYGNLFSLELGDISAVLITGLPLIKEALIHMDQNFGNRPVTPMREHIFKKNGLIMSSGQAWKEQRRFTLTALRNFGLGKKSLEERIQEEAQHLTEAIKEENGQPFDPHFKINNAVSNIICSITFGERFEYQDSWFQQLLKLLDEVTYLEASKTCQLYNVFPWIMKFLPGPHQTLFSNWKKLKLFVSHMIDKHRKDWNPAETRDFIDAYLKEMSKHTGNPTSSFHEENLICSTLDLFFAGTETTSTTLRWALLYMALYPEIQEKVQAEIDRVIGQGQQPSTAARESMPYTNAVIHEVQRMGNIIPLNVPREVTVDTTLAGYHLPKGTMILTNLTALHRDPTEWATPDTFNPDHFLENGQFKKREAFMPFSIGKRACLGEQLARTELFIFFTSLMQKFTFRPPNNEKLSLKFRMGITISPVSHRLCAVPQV
Description: CYP2J2 P450-Glo luciferase assay (FDA Approved Drug Library screen). As to conditions: read-out: Average inhibition CYP2J2 (%).

The target in series [7] is CYP3A4 (Homo sapiens, UniProt P08684). Nature of the series: in vitro.
Setting [8] is: intraplantar injection in hind paws.

Chain of CYP3A4 (P08684 whole entry): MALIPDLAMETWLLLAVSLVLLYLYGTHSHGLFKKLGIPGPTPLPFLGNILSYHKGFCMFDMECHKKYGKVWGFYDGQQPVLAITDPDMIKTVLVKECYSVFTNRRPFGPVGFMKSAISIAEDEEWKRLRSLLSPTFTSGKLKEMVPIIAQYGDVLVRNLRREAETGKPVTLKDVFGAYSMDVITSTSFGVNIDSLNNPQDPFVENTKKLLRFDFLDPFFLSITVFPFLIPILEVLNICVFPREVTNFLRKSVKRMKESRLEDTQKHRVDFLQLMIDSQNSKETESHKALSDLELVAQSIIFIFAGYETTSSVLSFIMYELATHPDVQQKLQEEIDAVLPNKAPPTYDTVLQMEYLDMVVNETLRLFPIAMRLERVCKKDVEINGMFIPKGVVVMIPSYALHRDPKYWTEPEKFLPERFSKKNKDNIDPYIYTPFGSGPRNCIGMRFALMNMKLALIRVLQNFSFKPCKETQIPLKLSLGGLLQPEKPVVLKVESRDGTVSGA
Chain of TRPV1 (Q704Y3 whole entry): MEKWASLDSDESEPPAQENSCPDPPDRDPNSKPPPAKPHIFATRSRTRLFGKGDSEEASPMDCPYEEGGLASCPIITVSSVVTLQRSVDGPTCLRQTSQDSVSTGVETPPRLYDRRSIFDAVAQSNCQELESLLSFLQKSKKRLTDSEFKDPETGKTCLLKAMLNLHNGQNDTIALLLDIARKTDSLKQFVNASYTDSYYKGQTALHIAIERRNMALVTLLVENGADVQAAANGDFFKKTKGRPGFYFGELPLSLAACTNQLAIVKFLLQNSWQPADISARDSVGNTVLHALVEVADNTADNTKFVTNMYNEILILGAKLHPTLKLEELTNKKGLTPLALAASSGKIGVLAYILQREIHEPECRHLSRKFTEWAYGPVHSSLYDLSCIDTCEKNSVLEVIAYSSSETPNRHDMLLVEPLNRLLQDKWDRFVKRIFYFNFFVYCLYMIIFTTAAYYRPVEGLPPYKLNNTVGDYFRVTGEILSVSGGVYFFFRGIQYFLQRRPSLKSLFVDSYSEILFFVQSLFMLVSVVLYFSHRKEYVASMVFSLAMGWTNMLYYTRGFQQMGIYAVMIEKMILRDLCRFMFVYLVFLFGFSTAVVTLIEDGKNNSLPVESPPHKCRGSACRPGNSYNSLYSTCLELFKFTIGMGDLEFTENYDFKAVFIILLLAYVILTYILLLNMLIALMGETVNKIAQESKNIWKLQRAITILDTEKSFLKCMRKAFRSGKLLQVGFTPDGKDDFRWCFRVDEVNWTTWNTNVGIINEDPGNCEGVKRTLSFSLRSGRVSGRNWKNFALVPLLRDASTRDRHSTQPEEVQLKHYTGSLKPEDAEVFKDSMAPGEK

As for `CN(C)CCCn1cc(C2=C(c3c[nH]c4ccccc34)C(=O)NC2=O)c2ccccc21`, the “effect of kinase inhibitor on 9,10-EpOME-evoked TRPV1 sensitization” value in series [1] is on record as “did not have any effect”.
Turning to `CCCCC/C=C\CC1OC1CCCCCCCC(=O)O` (stereo not drawn) [9,10-EpOME, 9,10-epoxy-12Z-octadecenoic acid], in series [2] (setting [8]), the “duration of significant reduction of mechanical thresholds” value is 2 h and the “duration of significant reduction of thermal thresholds” value is listed as 1 h. Further, the “duration of decrease of mechanical thresholds” value in series [2] (intrathecal injection) is “up to 1.5 h”. The thermal thresholds entry in series [2] (intrathecal injection, 30 minutes after i.th. injection) was “significant but rather weak reduction”.
Regarding `CC(C)(C)c1ccc(/C=C/C(=O)Nc2ccc3c(c2)OCCO3)cc1` [AMG 9810], in series [3], the “block of the second 9,10-EpOME-evoked calcium transient” value is reported as “could block”.
For the molecule `Cl.Cl.O=S(=O)(NCCNC/C=C/c1ccc(Br)cc1)c1cccc2cnccc12` [H89 dihydrochloride], in series [1], the “effect of kinase inhibitor on 9,10-EpOME-evoked TRPV1 sensitization” value is listed as “significant reduction”.
In the case of `CC(C)c1ccc(NC(=O)Cn2cnc3c2c(=O)n(C)c(=O)n3C)cc1` [HC-030031], the “block of the second 9,10-EpOME-evoked calcium transient” value in series [3] was “but not the TRPA1 antagonist HC-030031 could block”.
As to `CC(C)(C)c1ccc(C(O)CCCN2CCC(C(O)(c3ccccc3)c3ccccc3)CC2)cc1` (stereo not drawn) [Terfenadine], the “duration of increase in mechanical thresholds” value in series [4] (1 or 2 mg·kg-1 i.v., eight days after paclitaxel) is reported as 2 h. In series [4] (1 versus 2 mg·kg-1 i.v.), the “difference between the two doses in mechanical thresholds” value was “no significant differences”. Also, the “mechanical thresholds of paclitaxel treated mice” value in series [4] (terfenadine 1 or 2 mg·kg-1 i.v., loratadine 1 mg kg-1 i.v., eight days after paclitaxel) is “significant increase”. The “remaining concentrations of all measured epoxylipids in DRGs, spinal dorsal horn and plasma” value in series [5] (1 mg·kg-1 i.v.) is given as “reduced significantly”. Besides, the “9,10-EpOME concentrations in sciatic nerve, DRGs and dorsal spinal cord” value in series [5] (1 mg·kg-1 i.v., two hours, eight days after paclitaxel) is reported as “significant reduction”. Further, the “levels of epoxylipids reduced to” value in series [5] (terfenadine treatment) is reported as “about 50%”.
For the molecule `C[C@]12CC[C@@H]3c4ccc(O)cc4CC[C@H]3[C@@H]1CC[C@@H]2O` [c054, Estradiol], the inhibition at 10 µM in series [6] was determined as 84.4%. Moreover, the inhibition at 30 min, 10 μM in series [7] came out at 12.1%.
On the same counts, the results for `CCC(=O)O[C@]1(C(=O)CCl)[C@@H](C)C[C@H]2[C@@H]3CCC4=CC(=O)C=C[C@]4(C)[C@@]3(F)[C@@H](O)C[C@@]21C` [c146, Clobetasol Propionate] are 78.2% and -4.3%.
For `CC(C)OC(=O)C(C)(C)Oc1ccc(C(=O)c2ccc(Cl)cc2)cc1` [c246, Fenofibrate], in that order: 78% and -26.2%.
On the same counts, the results for `C#C[C@]1(O)CC[C@H]2[C@@H]3CCC4=CC(=O)CC[C@@H]4[C@H]3CC[C@@]21CC` [c314, Levonorgestrel] are 64% and 5.1%.
For the molecule `CC1(C)O[C@@H]2C[C@H]3[C@@H]4CCC5=CC(=O)CC[C@]5(C)[C@@]4(F)[C@@H](O)C[C@]3(C)[C@]2(C(=O)CCl)O1` [c440, Halcinonide], in series [6], the inhibition at 10 µM is 76.8%. Also, the inhibition at 30 min, 10 μM in series [7] is -18.5%.
For `CC(C)/N=c1\cc2n(-c3ccc(Cl)cc3)c3ccccc3nc-2cc1Nc1ccc(Cl)cc1` [c516, Clofazimine], in that order: 79.1% and -82.9%.
For `Cc1[nH]cnc1CN1CCc2c(c3ccccc3n2C)C1=O` [c595, Alosetron•HCl], in that order: 81.8% and 14%.
Turning to `Cc1cccc(CN2CCN(C(c3ccccc3)c3ccc(Cl)cc3)CC2)c1` (stereo not drawn) [c608, Meclizine Dihydrochloride], the inhibition at 10 µM in series [6] was 71.5%. In series [7], the inhibition at 30 min, 10 μM was 17.4%.

(Values after patent publication US11944613B2, “CYP2J2 antagonists in the treatment of pain” (FRAUNHOFER-GESELLSCHAFT ZUR FÖRDERUNG DER ANGEWANDTEN …, priority 2014, dated 2024).)
